# Source: patent publication US20260256792A1, “TREATMENT OF CHRONIC SPONTANEOUS URTICARIA BY ADMINISTERING (R)-2-[3-[4-AMINO-3-(2-FLUORO-4-PHENOXY-PHENYL)PYRAZOLO[3,4-D]PYRIMIDIN-1-YL]PIPERIDINE-1-CARBONYL]-4-METHYL-4-[4-(OXETAN-3-YL)PIPERAZIN-1-YL]PENT-2-ENENITRILE” (priority 2023, published 2026)
# Test system: moderate-to-severe chronic spontaneous urticaria (CSU)
# Test: Phase 2 CSU study: urticaria activity score over 7 days (UAS7)
# Format: in vivo, human
# Settings: for RRD (%) for rilzabrutinib vs. placebo, UAS7 = 0 / RRD (%) for rilzabrutinib vs. placebo, UAS7 ≤6 / Responder n (%), UAS7 = 0 / Responder n (%), UAS7 ≤6 / Imputed non-responder n (%), UAS7 = 0 / Imputed non-responder n (%), UAS7 ≤6 / Non-responder n (%), UAS7 = 0 / Non-responder n (%), UAS7 ≤6 / OR for rilzabrutinib vs. placebo, UAS7 = 0 / OR for rilzabrutinib vs. placebo, UAS7 ≤6: ITT, 400 mg TID; for UAS7 Post-baseline Mean (SD): Omalizumab-Naïve Population with Outlier Removed
# Text: The study comprises a 12 week, randomized, double-blind, placebo-controlled, multi-center, dose-ranging efficacy and safety phase, followed by a 40 week open label extension (OLE) phase (see FIG. 1). The study consists of three phases and an optional OLE phase. […] Clinically, CSU is characterized by the spontaneous and recurrent appearance of pruritic hives. The proposed primary endpoints were the UAS7 at Week 12 in EU and EU reference countries and the ISS7 in the US. Regardless of where a participant was from, all assessments were the same. The UAS7 score is a composite score containing both the HSS7 and the ISS7. This allowed a global assessment of the two key components of urticaria: hives and itch. […] The UAS is a validated PRO measure. […] The daily UAS scores range from 0 to 6 point/day. […] Patients were to complete the UAS using the e-diary. […] The following secondary endpoints were to be analyzed using the same approach as for the primary endpoint: • Change from baseline in UAS7 at Week 4 • Change from baseline in UAS7 at Week 12 (for US and US reference countries) • Change from baseline in ISS7 at Week 12 (except US and US reference countries) • Change from baseline in HSS7 at Week 12 The following responder secondary endpoints were to be analyzed using the Cochran-Mantel-Haenszel test adjusted by region: • Proportion of participants with UAS7<6 at Week 12 • Proportion of participants with UAS7=0 at Week 12 Participants who received selected prohibited medications and/or rescue medications were to be considered as non-responders for time points after the medication usage. For other participants, all available data including those collected during the off-treatment period were to be used to determine the responder/non-responder status. Missing data were to be considered as non-responders.
smiles,measurement,setting,value
"CC(C)(C=C(C#N)C(=O)N1CCC[C@@H](n2nc(-c3ccc(Oc4ccccc4)cc3F)c3c(N)ncnc32)C1)N1CCN(C2COC2)CC1 [rilzabrutinib, (R)-2-[3-[4-amino-3-(2-fluoro-4-phenoxy-phenyl)pyrazolo[3,4-d]pyrimidin-1-yl]piperidine-1-carbonyl]-4-methyl-4-[4-(oxetan-3-yl)piperazin-1-yl]pent-2-enenitrile]","RRD (%) for rilzabrutinib vs. placebo, UAS7 = 0",Week 7,6.9 %
same,"RRD (%) for rilzabrutinib vs. placebo, UAS7 ≤6",Week 7,16.1 %
same,"Responder n (%), UAS7 = 0",Week 7,4 (9.8) n (%)
same,"Responder n (%), UAS7 ≤6",Week 7,11 (26.8) n (%)
same,"Imputed non-responder n (%), UAS7 = 0",Week 8,8 (19.5) n (%)
same,"Imputed non-responder n (%), UAS7 ≤6",Week 8,8 (19.5) n (%)
same,"Non-responder n (%), UAS7 = 0",Week 8,37 (90.2) n (%)
same,"Non-responder n (%), UAS7 ≤6",Week 8,28 (68.3) n (%)
same,"OR for rilzabrutinib vs. placebo, UAS7 = 0",Week 8,1.697
same,"OR for rilzabrutinib vs. placebo, UAS7 ≤6",Week 8,2.257
same,"RRD (%) for rilzabrutinib vs. placebo, UAS7 = 0",Week 8,3.2 %
same,"RRD (%) for rilzabrutinib vs. placebo, UAS7 ≤6",Week 8,12.7 %
same,"Responder n (%), UAS7 = 0",Week 8,4 (9.8) n (%)
same,"Responder n (%), UAS7 ≤6",Week 8,13 (31.7) n (%)
same,"Imputed non-responder n (%), UAS7 = 0",Week 9,7 (17.1) n (%)
same,"Imputed non-responder n (%), UAS7 ≤6",Week 9,7 (17.1) n (%)
same,"Non-responder n (%), UAS7 = 0",Week 9,37 (90.2) n (%)
same,"Non-responder n (%), UAS7 ≤6",Week 9,26 (63.4) n (%)
same,"OR for rilzabrutinib vs. placebo, UAS7 = 0",Week 9,1.117
same,"OR for rilzabrutinib vs. placebo, UAS7 ≤6",Week 9,4.680
same,"RRD (%) for rilzabrutinib vs. placebo, UAS7 = 0",Week 9,0.8 %
same,"RRD (%) for rilzabrutinib vs. placebo, UAS7 ≤6",Week 9,22.0 %
same,"Responder n (%), UAS7 = 0",Week 9,4 (9.8) n (%)
same,"Responder n (%), UAS7 ≤6",Week 9,15 (36.6) n (%)
same,"Imputed non-responder n (%), UAS7 = 0",Week 10,7 (17.1) n (%)
same,"Imputed non-responder n (%), UAS7 ≤6",Week 10,7 (17.1) n (%)
same,"Non-responder n (%), UAS7 = 0",Week 10,35 (85.4) n (%)
same,"Non-responder n (%), UAS7 ≤6",Week 10,27 (65.9) n (%)
same,"OR for rilzabrutinib vs. placebo, UAS7 = 0",Week 10,1.210
same,"OR for rilzabrutinib vs. placebo, UAS7 ≤6",Week 10,2.074
same,"RRD (%) for rilzabrutinib vs. placebo, UAS7 ≤6",Week 10,12.9 %
same,"Responder n (%), UAS7 = 0",Week 10,6 (14.6) n (%)
same,"Responder n (%), UAS7 ≤6",Week 10,14 (34.1) n (%)
same,"Imputed non-responder n (%), UAS7 = 0",Week 11,6 (14.6) n (%)
same,"Imputed non-responder n (%), UAS7 ≤6",Week 11,6 (14.6) n (%)
same,"Non-responder n (%), UAS7 = 0",Week 11,34 (82.9) n (%)
same,"Non-responder n (%), UAS7 ≤6",Week 11,26 (63.4) n (%)
same,"OR for rilzabrutinib vs. placebo, UAS7 = 0",Week 11,3.449
same,"OR for rilzabrutinib vs. placebo, UAS7 ≤6",Week 11,2.322
same,"RRD (%) for rilzabrutinib vs. placebo, UAS7 = 0",Week 11,10.4 %
same,"RRD (%) for rilzabrutinib vs. placebo, UAS7 ≤6",Week 11,15.0 %
same,"Responder n (%), UAS7 = 0",Week 11,7 (17.1) n (%)
same,"Responder n (%), UAS7 ≤6",Week 11,15 (36.6) n (%)
same,"Imputed non-responder n (%), UAS7 = 0",Week 12,11 (26.8) n (%)
same,"Imputed non-responder n (%), UAS7 ≤6",Week 12,11 (26.8) n (%)
same,"Non-responder n (%), UAS7 = 0",Week 12,31 (75.6) n (%)
same,"Non-responder n (%), UAS7 ≤6",Week 12,26 (63.4) n (%)
same,"OR for rilzabrutinib vs. placebo, UAS7 = 0",Week 12,1.995
same,"OR for rilzabrutinib vs. placebo, UAS7 ≤6",Week 12,3.721
same,"RRD (%) for rilzabrutinib vs. placebo, UAS7 = 0",Week 12,9.4 %
same,"RRD (%) for rilzabrutinib vs. placebo, UAS7 ≤6",Week 12,20.9 %
same,"Responder n (%), UAS7 = 0",Week 12,10 (24.4) n (%)
same,"Responder n (%), UAS7 ≤6",Week 12,15 (36.6) n (%)
same,UAS7 Post-baseline Mean (SD),"400 mg BID, Week 1",19.77 (11.32)
same,UAS7 Post-baseline Mean (SD),"400 mg BID, Week 2",19.59 (10.86)
same,UAS7 Post-baseline Mean (SD),"400 mg BID, Week 3",17.71 (11.91)
same,UAS7 Post-baseline Mean (SD),"400 mg BID, Week 4",15.92 (11.71)
same,UAS7 Post-baseline Mean (SD),"400 mg BID, Week 5",17.22 (13.36)
same,UAS7 Post-baseline Mean (SD),"400 mg BID, Week 6",17.02 (12.76)
same,UAS7 Post-baseline Mean (SD),"400 mg BID, Week 7",15.55 (11.97)
same,UAS7 Post-baseline Mean (SD),"400 mg BID, Week 8",13.98 (13.06)
same,UAS7 Post-baseline Mean (SD),"400 mg BID, Week 9",14.64 (14.43)
same,UAS7 Post-baseline Mean (SD),"400 mg BID, Week 10",15.22 (14.36)
same,UAS7 Post-baseline Mean (SD),"400 mg BID, Week 11",15.06 (13.80)
same,UAS7 Post-baseline Mean (SD),"400 mg BID, Week 12",15.61 (13.91)
same,UAS7 Post-baseline Mean (SD),"400 mg QPM, Week 1",23.81 (8.78)
